Laboratory results: publication PMC10375784, “Synthesis of phthalazine-based derivatives as selective anti-breast cancer agents through EGFR-mediated apoptosis: in vitro and in silico studies” (BMC Chemistry, 2023)
Read-outs that look alike come from different tables or passages of the source.

How the values were obtained:
VEGFR‐2 = details: cited from earlier work
MDA-MB-231 cells [1] = assay: MTT cytotoxicity assay, MDA-MB-231; format: cell-based
[2] = tested on: breast MCF-7 and MDA-MB-231 cancer cell lines; assay: SAR ranking of cytotoxicity (from Table 1); format: cell-based; details: Fig. 4, SAR summary
MCF-7 cells = assay: MTT cytotoxicity assay, MCF-7; format: cell-based; details: Homo sapiens, MCF7, 48 h, three independent trials, read-out: IC50 (μM) ± SD MCF-7
Procedure: (§1) MCF-7, HepG2 cancer cells and WISH normal cells were obtained from the National Cancer Institute in Cairo, Egypt, they were cultured in complete media of RPMI and DMEM, respectively at 5% carbon dioxide and 37 °C following standard tissue culture work. The cells were grown in “10% fetal bovine serum (FBS) and 1% penicillin–streptomycin” in 96-multiwell plate. All the synthesized compounds were screened for their cytotoxicity using 20 µL of MTT solution (Promega, USA) for 48 hours using untreated and treated cells with concentrations of (0.01, 0.1, 1, 10, and 100 µM) for 48 h. The plate was cultured for 3 h. Percentage of cell viability was calculated following this equation: 100-(ASample/AControl)X100 . An ELISA microplate reader was used to measure the absorbance at 690 nm to calculate the viability versus concentration, and the IC50 value using GraphPad prism software.

[3] = tested on: breast MCF-7 and MDA-MB-231 cancer cell lines; assay: SAR ranking of cytotoxicity (from Table 1); details: based on Table 1; cell line not stated, order follows MCF-7 values
Procedure: as §1

[4] = MTT cytotoxicity assay, normal breast cells MCF-10A; format: cell-based; details: human; MCF-10A normal breast cells, highest concentration; read-out: percentage of cell viability at the highest concentration
MCF-10A cells = assay: as above; format: cell-based; details: Homo sapiens, MCF-10A; MTT, 48 h, normal breast cells; read-out: IC50 (μM) ± SD MCF-10A
EGFR = biological target: T1, EGFR (Homo sapiens, UniProt P00533); assay: EGFR enzyme inhibition (BPS Bioscience kit, ELISA); format: biochemical; details: three independent replicates; for IC50: five concentrations, read-out: EGFR IC50 [nM] ± SD
T1 construct: purchased BPS Bioscience Corporation 40321
Procedure: The luminescence was measured with a microplate reader at 450 nm by ELISA Reader (PerkinElmer). Inhibition percentage was calculated following this equation: 100-[Acontrol/Atreated-Control)] , IC50 was determined using GraphPad prism7 using inhibition curves at five different concentrations of each compound.

MDA-MB-231 cells [5] = assay: Flow cytometry Annexin V/PI apoptosis/necrosis assessment; format: cell-based; details: MDA-MB-231, treated at IC50 0.57 μM, 48 h
Procedure: MDA-MB-231 cells were incubated overnight in 6-well culture plates (3–5 × 10^5 cells/well) and then treated with the IC50 values for 48 h with compound 12d. After that, the cells were incubated in a 100 µL solution of Annexin binding buffer "25 mM CaCl2, 1.4 M NaCl, and 0.1 M Hepes/NaOH, pH 7.4" in the dark for 30 min with "Annexin V-FITC solution (1:100) and propidium iodide (PI) at a concentration equivalent to 10 µg/mL." The labeled cells were then extracted using the Cytoflex FACS machine. CytExpert software was used to analyze the data.

[6] = Homo sapiens, MDA-MB-231, MTT, 48 h, three independent trials, read-out: IC50 (μM) ± SD MDA-MB-231
[7] = Fig. 3, MTT, 100 µM to 0.01 µM, 48 h, cell line not given, they match MDA-MB-231
[8] = Homo sapiens, Fig. 3, MTT, 100 µM to 0.01 µM, 48 h, cell line not given, they match MDA-MB-231, read-out: IC50 (Fig. 3 curve fit)

T1 sequence (P00533 25-1210): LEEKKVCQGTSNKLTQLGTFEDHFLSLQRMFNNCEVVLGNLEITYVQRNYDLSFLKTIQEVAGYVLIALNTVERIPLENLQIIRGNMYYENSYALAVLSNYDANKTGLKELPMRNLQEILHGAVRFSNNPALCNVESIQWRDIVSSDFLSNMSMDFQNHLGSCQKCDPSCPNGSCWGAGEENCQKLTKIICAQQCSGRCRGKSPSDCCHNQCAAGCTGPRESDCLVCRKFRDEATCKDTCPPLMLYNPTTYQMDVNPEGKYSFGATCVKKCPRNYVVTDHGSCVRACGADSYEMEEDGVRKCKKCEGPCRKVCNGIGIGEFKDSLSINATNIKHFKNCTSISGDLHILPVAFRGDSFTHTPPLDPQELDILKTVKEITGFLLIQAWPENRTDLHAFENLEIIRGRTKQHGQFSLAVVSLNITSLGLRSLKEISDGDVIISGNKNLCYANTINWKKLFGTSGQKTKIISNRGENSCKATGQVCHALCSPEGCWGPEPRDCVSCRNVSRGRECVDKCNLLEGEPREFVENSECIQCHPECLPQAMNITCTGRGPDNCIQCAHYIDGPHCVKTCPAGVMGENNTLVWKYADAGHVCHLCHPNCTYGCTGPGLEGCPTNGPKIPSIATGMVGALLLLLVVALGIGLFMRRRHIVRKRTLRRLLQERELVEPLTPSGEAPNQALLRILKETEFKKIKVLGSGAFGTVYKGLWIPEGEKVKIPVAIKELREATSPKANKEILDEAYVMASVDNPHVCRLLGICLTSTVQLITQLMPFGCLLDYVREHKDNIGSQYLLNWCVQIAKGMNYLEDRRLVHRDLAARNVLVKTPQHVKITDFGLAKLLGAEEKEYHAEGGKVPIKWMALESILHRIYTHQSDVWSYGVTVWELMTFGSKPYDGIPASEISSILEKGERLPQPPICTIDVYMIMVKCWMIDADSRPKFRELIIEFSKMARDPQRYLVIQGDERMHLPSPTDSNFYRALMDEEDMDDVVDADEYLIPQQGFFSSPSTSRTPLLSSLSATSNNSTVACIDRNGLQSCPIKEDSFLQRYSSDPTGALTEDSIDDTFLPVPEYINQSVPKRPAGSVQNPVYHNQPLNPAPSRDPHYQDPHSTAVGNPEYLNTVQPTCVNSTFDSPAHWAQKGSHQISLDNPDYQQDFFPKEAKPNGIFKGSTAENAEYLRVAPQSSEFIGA

## Cc1ccc(Nc2nnc(Cc3ccncc3)c3ccccc23)cc1Br [AAC789]
VEGFR‐2
  IC50: 20 nM

## O=C(Cn1nc(Cc2ccccc2)c2ccccc2c1=O)NCc1ccccc1 [Compound 6a, 2-(4-benzyl-1-oxophthalazin-2(1H)-yl)-N-benzyl acetamide]
MDA-MB-231 cells [1]; [6]
  IC50: 19.8 ± 0.74 µM
[2]
  level of cytotoxic activity (Fig. 4): Third level activity (Poor cytotoxicity)
MCF-7 cells
  IC50: 18.6 ± 0.69 µM
other
  melting point: 174 to 176 °C

## C=CCNC(=O)Cn1nc(Cc2ccccc2)c2ccccc2c1=O [Compound 6f, 2-(4-benzyl-1-oxophthalazin-2(1H)-yl)-N-allyl acetamide]
MDA-MB-231 cells [1]; [6]
  IC50: ≥ 50 µM
[2]
  level of cytotoxic activity (Fig. 4): Third level activity (Poor cytotoxicity)
MCF-7 cells
  IC50: 23.1 ± 0.94 µM
other
  melting point: 164 to 166 °C

## O=C(Cn1nc(Cc2ccccc2)c2ccccc2c1=O)N1CCCCC1 [Compound 6g, 4-benzyl-2-(2-oxo-2-(piperidin-1-yl)ethyl) phthalazin-1(2H)-one]
other
  melting point: 192 to 194 °C

## O=C(Cn1nc(Cc2ccccc2)c2ccccc2c1=O)N1CCOCC1 [Compound 6h, 4-benzyl-2-(2-morpholino-2-oxoethyl) phthalazin-1(2H)-one]
MDA-MB-231 cells [1]; [6]
  IC50: 21.3 ± 0.64 µM
[2]
  level of cytotoxic activity (Fig. 4): Third level activity (Poor cytotoxicity)
MCF-7 cells
  IC50: 17.3 ± 0.31 µM
other
  melting point: 210 to 212 °C

## COC(=O)CNC(=O)Cn1nc(Cc2ccccc2)c2ccccc2c1=O [Compound 7a, methyl (2-(4-benzyl-1-oxophthalazin-2(1H)-yl)acetyl) glycinate]
MDA-MB-231 cells [1]; [6]
  IC50: 26.5 ± 0.79 µM
MCF-7 cells
  IC50: ≥ 50 µM

## NNC(=O)CNC(=O)Cn1nc(Cc2ccccc2)c2ccccc2c1=O [Compound 8a, 2-(4-benzyl-1-oxophthalazin-2(1H)-yl)-N-(2-hydrazineyl-2-oxoethyl) acetamide]
MDA-MB-231 cells [1]; [6]
  IC50: 1.34 ± 0.13 µM
MCF-7 cells
  IC50: 31.2 ± 1.01 µM
other
  melting point: 202 to 204 °C

## O=C(CNC(=O)Cn1nc(Cc2ccccc2)c2ccccc2c1=O)NCc1ccccc1 [Compound 10a, N-benzyl-2-(2-(4-benzyl-1-oxophthalazin-2(1H)-yl)acetamido) acetamide]
MDA-MB-231 cells [1]; [6]
  IC50: 6.4 ± 0.18 µM
MCF-7 cells
  IC50: ≥ 50 µM
other
  melting point: 186 to 188 °C

## C=CCNC(=O)CNC(=O)Cn1nc(Cc2ccccc2)c2ccccc2c1=O [Compound 10f, N-allyl-2-(2-(4-benzyl-1-oxophthalazin-2(1H)-yl)acetamido) acetamide]
MDA-MB-231 cells [1]; [6]
  IC50: 8.6 ± 0.1 µM
[2]
  level of cytotoxic activity (Fig. 4): Second level activity (Moderate cytotoxicity)
MCF-7 cells
  IC50: 15.4 ± 0.28 µM
other
  melting point: 188 to 190 °C
[3]
  order of cytotoxic activity (SAR): moderate cytotoxicity (IC50 ≤ 20 μM)

## O=C(Cn1nc(Cc2ccccc2)c2ccccc2c1=O)NCC(=O)N1CCOCC1 [Compound 10h, 2-(4-benzyl-1-oxophthalazin-2(1H)-yl)-N-(2-morpholino-2-oxoethyl) acetamide]
MDA-MB-231 cells [1]; [6]
  IC50: 2.3 ± 0.1 µM
[2]
  level of cytotoxic activity (Fig. 4): Second level activity (Moderate cytotoxicity)
MCF-7 cells
  IC50: 16.4 ± 0.31 µM
other
  melting point: 148 to 150 °C
[3]
  order of cytotoxic activity (SAR): moderate cytotoxicity (IC50 ≤ 20 μM)

## COC(=O)CNC(=O)CNC(=O)Cn1nc(Cc2ccccc2)c2ccccc2c1=O [Compound 11a, methyl (2-(4-benzyl-1-oxophthalazin-2(1H)-yl)acetyl) glycyl glycinate]
MDA-MB-231 cells [1]; [6]
  IC50: 7.2 ± 0.3 µM
[2]
  level of cytotoxic activity (Fig. 4): Second level activity (Moderate cytotoxicity)
MCF-7 cells
  IC50: 11.3 ± 0.29 µM
other
  melting point: 162 to 164 °C
[3]
  order of cytotoxic activity (SAR): moderate cytotoxicity (IC50 ≤ 20 μM)

## COC(=O)C(NC(=O)CNC(=O)Cn1nc(Cc2ccccc2)c2ccccc2c1=O)C(C)C (stereo not shown) [Compound 11d, methyl (2-(4-benzyl-1-oxophthalazin-2(1H)-yl)acetyl) glycyl valinate]
MDA-MB-231 cells [1]; [7]
  LogIC50 (Fig. 3 curve fit): -0.03564
MDA-MB-231 cells [1]; [6]
  IC50: 0.92 ± 0.01 µM
MDA-MB-231 cells [1]; [8]
  IC50: 0.921 µM
MCF-7 cells
  IC50: 2.1 ± 0.01 µM
[4]
  viability at 48 h, 100 µM: 11%
MCF-10A cells
  IC50: 39.4 ± 1.8 µM
EGFR
  inhibition at 10 µM: 92.9 ± 2.08%
  IC50: 79.6 ± 1.35 nM
other
  melting point: 190 to 192 °C

## C/C(=N\NC(=O)CNC(=O)Cn1nc(Cc2ccccc2)c2ccccc2c1=O)c1ccco1 [Compound 12c, (E)-2-(4-benzyl-1-oxophthalazin-2(1H)-yl)-N-(2-(2-(1-(furan-2-yl)ethylidene) hydrazineyl)-2-oxoethyl) acetamide]
MDA-MB-231 cells [1]; [7]
  LogIC50 (Fig. 3 curve fit): 0.2772
MDA-MB-231 cells [1]; [6]
  IC50: 1.89 ± 0.04 µM
MDA-MB-231 cells [1]; [8]
  IC50: 1.89 µM
[2]
  level of cytotoxic activity (Fig. 4): First level activity (Potent cytotoxicity)
MCF-7 cells
  IC50: 1.4 ± 0.05 µM
[4]
  viability at 48 h, 100 µM: 9.6%
MCF-10A cells
  IC50: 43.6 ± 1.9 µM
EGFR
  inhibition at 10 µM: 96.2 ± 2.04%
  IC50: 65.4 ± 1.12 nM
other
  melting point: 209 to 210 °C
[3]
  order of cytotoxic activity (SAR): potent cytotoxicicty (IC50 ≤ 2.5 μM)

## Nc1cc(=O)[nH]n1C(=O)CNC(=O)Cn1nc(Cc2ccccc2)c2ccccc2c1=O [Compound 12d, N-(2-(5-amino-3-oxo-2,3-dihydro-1H-pyrazol-1-yl)-2-oxoethyl)-2-(4-benzyl-1-oxophthalazin-2(1H)-yl) acetamide]
MDA-MB-231 cells [1]; [7]
  LogIC50 (Fig. 3 curve fit): -0.2373
MDA-MB-231 cells [1]; [6]
  IC50: 0.57 ± 0.09 µM
MDA-MB-231 cells [1]; [8]
  IC50: 0.579 µM
MDA-MB-231 cells [1]; MDA-MB-231, highest concentration (range 100 µM to 0.01 µM), 48 h
  cell growth inhibition at the highest concentration: 98.2%
[2]
  level of cytotoxic activity (Fig. 4): First level activity (Potent cytotoxicity)
MCF-7 cells
  IC50: 1.9 ± 0.01 µM
[4]
  viability at 48 h, 100 µM: 3%
MCF-10A cells
  IC50: 41.6 ± 1.8 µM
EGFR
  inhibition at 10 µM: 97.6 ± 2.49%
  IC50: 21.4 ± 0.67 nM
[3]
  order of cytotoxic activity (SAR): potent cytotoxicicty (IC50 ≤ 2.5 μM)
MDA-MB-231 cells [5]
  early apoptosis (Q4, AV+/PI−): 24.2%
  late apoptosis (Q2, AV+/PI+): 18.3%
  necrosis fold vs control: 9.25 fold
  total apoptosis fold vs control: 64.4 fold
MDA-MB-231 cells [5]; control 0.66%
  total apoptotic cell death: 42.5%
MDA-MB-231 cells [5]; control 0.67%
  necrosis (Q1, AV−/PI+): 6.2%

## C#Cc1cccc(Nc2ncnc3cc(OCCOC)c(OCCOC)cc23)c1 [Erlotinib, reference compound]
MDA-MB-231 cells [1]; Homo sapiens, MDA-MB-231, 48 h, MTT, three independent trials, read-out: IC50 (μM) ± SD MDA-MB-231
  IC50: 1 µM
MDA-MB-231 cells [1]; MTT, 48 h, three independent trials, read-out: IC50 (μM) ± SD MDA-MB-231
  IC50: 1.02 ± 0.1 µM
MCF-7 cells
  IC50: 1.32 ± 0.04 µM
MCF-10A cells
  IC50: 30.9 ± 1.8 µM
